# Results as given in PMC6337650 (Molecules, 2018).
# Read-outs that look alike come from different tables or passages of the source.
# Key:
# HCT-116 cells = test: MTT antiproliferative assay, HCT-116; assay type: cell-based, human
# Outline: (§1)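 Cells seeded at 9 × 10^3 per well, allowed 24 h to adhere, then exposed 48 h to compound at 1, 10, 50 and 100 µM. MTT added to 2 mg/mL for 4 h, formazan dissolved in DMSO, OD read at 492 nm; inhibition calculated relative to untreated and blank wells.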
# [1] = MTT antiproliferative assay, HCT-116; assay type: cell-based, human; conditions: human, HCT-116 colorectal cancer cells versus normal L02 cells; HCT-116 vs L02
# Outline: as §1
# L02 cells = test: MTT assay on normal liver cells L02; assay type: cell-based; conditions: Homo sapiens
# Procedure: The antiproliferative activity of the target compounds against a normal L02 cell line and the three different human cancer cell lines viz. colorectal (HCT-116), liver (BEL-7402) and liver (HepG2) were evaluated using a standard MTT-based colorimetric assay. All cell lines were obtained from the Key Laboratory of Natural Resources and Functional Molecules of the Changbai Mountain (Yanbian University, Jilin, China) and maintained in Dulbecco’s modified Eagle’s medium (DMEM) and RPMI Media 1640 (RPMI1640), supplemented with 10% fetal bovine serum (FBS) at 37 °C in a humidified atmosphere containing 5% CO2.
# Cells were plated in 96-well plates at appropriate densities to ensure exponential growth throughout the experimental period (9 × 10^3 cells per well) and then allowed to adhere for 24 h. Cells were then treated for 48 h with four serial concentrations (1, 10, 50 and 100 µM) of each compound. […] After 48 h of incubation, 10 µL of MTT solution was added to each well to a final concentration of 2 mg/mL. Plates were then incubated for a further 4 h. After incubation, the MTT solution was removed and 150 µL of DMSO was added to each well for coloration. The plates were shaken vigorously for 10 min at room temperature to ensure complete solubilization. The optical density (OD) was read on a microplate reader (ELx800, BioTek, Highland Park, Winooski, VT, USA) at a wavelength of 492 nm and the data were subsequently analyzed. The percentage of cell growth inhibition was calculated from the following equation: Inhibitory rate (%) = [(1 − (ODtreated-ODblank)/(ODcontrol-ODblank)] × 100.(1)
structure (smiles),measurement,setting,value
"Cc1ccc(-n2cc(CNC(=O)COC(=O)[C@]3(C)CCC[C@@]4(C)[C@@H]5CC[C@@]6(C)C[C@]5(CC[C@@H]43)CC6=O)nn2)cc1 [Compound 5d, 2-oxo-2-(((1-(p-tolyl)-1H-1,2,3-triazol-4-yl)methyl)amino)ethyl(4R,4aS,6aR,9S,11aR,11bS)-4,9,11b-trimethyl-8-oxotetradecahydro-6a,9-methanocyclohepta[a]naphthalene-4-carboxylate]",inhibition at 100 µM,"HCT-116 cells; Homo sapiens, HCT-116, 100 μM, 48 h, MTT, mean ± SD, n=3, read-out: % Growth Inhibition at 100 μM HCT-116",84.6 ± 0.96%
same,IC50,"HCT-116 cells; Homo sapiens, HCT-116, 48 h, MTT, mean ± SD, n=3",5.38 ± 0.26 µM
same,Selectivity Index HCT-116,HCT-116 cells; IC50 on normal cells (L02)/IC50 on cancer cells,29.93
same,fold more active than 5-FU,HCT-116 cells; against HCT-116 cells,4.6 fold
same,selectivity ratio at 48 h,[1],38.2
same,IC50,"L02 cells; normal cell line, Table 3, read-out: (IC50, μM) L02",161 ± 1.96 µM
same,IC50,"L02 cells; normal liver cells, 48 h, MTT, Table 2, read-out: IC50 Values (μM) L02",> 100 µM
